The target in test [1] is T1, Dual specificity protein kinase TTK (Homo sapiens) (UniProt P33981).
T1 sequence (whole entry): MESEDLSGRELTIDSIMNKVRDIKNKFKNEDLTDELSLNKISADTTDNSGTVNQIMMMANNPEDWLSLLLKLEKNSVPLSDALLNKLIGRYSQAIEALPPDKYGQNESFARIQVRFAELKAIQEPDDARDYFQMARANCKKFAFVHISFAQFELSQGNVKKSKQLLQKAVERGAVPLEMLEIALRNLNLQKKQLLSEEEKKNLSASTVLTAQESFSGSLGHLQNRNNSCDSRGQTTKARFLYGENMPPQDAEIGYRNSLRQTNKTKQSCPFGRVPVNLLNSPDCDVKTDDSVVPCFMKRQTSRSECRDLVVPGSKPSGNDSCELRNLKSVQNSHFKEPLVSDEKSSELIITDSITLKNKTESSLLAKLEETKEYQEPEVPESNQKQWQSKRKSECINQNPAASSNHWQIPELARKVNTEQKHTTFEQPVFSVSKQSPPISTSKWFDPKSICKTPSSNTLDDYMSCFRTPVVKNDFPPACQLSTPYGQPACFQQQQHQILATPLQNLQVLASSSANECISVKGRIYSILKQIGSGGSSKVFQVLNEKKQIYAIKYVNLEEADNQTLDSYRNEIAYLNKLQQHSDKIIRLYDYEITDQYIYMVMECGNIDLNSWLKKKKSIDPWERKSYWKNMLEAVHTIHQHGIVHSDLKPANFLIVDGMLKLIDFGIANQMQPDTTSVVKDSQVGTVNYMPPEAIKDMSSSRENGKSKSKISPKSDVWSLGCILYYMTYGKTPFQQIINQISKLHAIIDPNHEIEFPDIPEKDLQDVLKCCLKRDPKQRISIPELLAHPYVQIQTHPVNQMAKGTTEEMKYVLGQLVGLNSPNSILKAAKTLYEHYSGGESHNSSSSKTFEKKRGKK
The test is described as follows: TTK SGC Tm panel (DSF). Conditions: for ΔTm: Compound concentration 10.0 uM.

The target of test [2] is Serine/threonine-protein kinase 10 (Homo sapiens) (UniProt O94804). As to the kind of experiment: STK10 SGC Tm panel (DSF). Conditions: for ΔTm: Compound concentration 10.0 uM.
The target of test [3] is Serine/threonine-protein kinase 24 (Homo sapiens) (UniProt Q9Y6E0). As to the kind of experiment: MST3 SGC Tm panel (DSF). Conditions: for ΔTm: Compound concentration 10.0 uM.
Test [4] has as its target T2, Ribosyldihydronicotinamide dehydrogenase [quinone] (Homo sapiens) (UniProt P16083).
T2 sequence (whole entry): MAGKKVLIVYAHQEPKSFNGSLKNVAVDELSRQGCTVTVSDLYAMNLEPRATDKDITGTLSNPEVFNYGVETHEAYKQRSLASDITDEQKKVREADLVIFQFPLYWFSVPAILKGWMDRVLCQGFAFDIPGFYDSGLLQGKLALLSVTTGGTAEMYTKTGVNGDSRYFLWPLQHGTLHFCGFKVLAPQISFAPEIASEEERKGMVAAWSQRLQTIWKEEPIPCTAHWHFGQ
As to the kind of experiment: NQO2 SGC Tm panel (DSF). Conditions: for ΔTm: Compound concentration 10.0 uM.

Test [5] has as its target Alpha-2B adrenergic receptor (Homo sapiens) (UniProt P18089). To be noted: Compound concentration 10.0 uM.
In test [6] the target is Cyclin-dependent kinase 16 (Homo sapiens) (UniProt Q00536). The test is described as follows: PCTK1 SGC Tm panel (DSF). To be noted: for ΔTm: Compound concentration 10.0 uM.
Test [7] deals with Muscarinic acetylcholine receptor M2 (Homo sapiens) (UniProt P08172). Conditions: Compound concentration 10.0 uM.
Test [8] addresses Calcium/calmodulin-dependent protein kinase type 1G (Homo sapiens) (UniProt Q96NX5). As to the kind of experiment: CAMK1G SGC Tm panel (DSF). To be noted: for ΔTm: Compound concentration 10.0 uM.
Test [9] has as its target 5-hydroxytryptamine receptor 1D (Homo sapiens) (UniProt P28221). Conditions: Compound concentration 10.0 uM.
In test [10] the target is Sodium-dependent serotonin transporter (Homo sapiens) (UniProt P31645). Conditions: Compound concentration 10.0 uM.
Test [11] deals with T3, Phosphorylase b kinase gamma catalytic chain, liver/testis isoform (Homo sapiens) (UniProt P15735).
T3 sequence (whole entry): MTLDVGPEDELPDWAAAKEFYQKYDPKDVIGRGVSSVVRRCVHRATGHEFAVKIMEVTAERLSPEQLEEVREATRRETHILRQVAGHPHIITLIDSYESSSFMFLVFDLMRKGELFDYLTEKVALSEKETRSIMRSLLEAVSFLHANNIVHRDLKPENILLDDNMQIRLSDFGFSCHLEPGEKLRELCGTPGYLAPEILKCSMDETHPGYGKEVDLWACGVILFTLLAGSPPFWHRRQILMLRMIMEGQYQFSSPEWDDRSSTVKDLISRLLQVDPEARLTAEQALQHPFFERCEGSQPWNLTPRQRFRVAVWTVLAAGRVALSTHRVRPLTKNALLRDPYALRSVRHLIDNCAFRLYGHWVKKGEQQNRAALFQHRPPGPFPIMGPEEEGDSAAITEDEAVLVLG
As to the kind of experiment: PHKG2 SGC Tm panel (DSF). To be noted: for ΔTm: Compound concentration 10.0 uM.

In test [12] the target is Fibroblast growth factor receptor 1 (Homo sapiens) (UniProt P11362). As to the kind of experiment: FGFR1 SGC Tm panel (DSF). To be noted: for ΔTm: Compound concentration 10.0 uM.

This note sets out measurements from ChEMBL document CHEMBL5303766, “Data for DCP probe FHT-2344” (2022).

Serine/threonine-protein kinase 10 (Homo sapiens), sequence (O94804 whole entry, looked up): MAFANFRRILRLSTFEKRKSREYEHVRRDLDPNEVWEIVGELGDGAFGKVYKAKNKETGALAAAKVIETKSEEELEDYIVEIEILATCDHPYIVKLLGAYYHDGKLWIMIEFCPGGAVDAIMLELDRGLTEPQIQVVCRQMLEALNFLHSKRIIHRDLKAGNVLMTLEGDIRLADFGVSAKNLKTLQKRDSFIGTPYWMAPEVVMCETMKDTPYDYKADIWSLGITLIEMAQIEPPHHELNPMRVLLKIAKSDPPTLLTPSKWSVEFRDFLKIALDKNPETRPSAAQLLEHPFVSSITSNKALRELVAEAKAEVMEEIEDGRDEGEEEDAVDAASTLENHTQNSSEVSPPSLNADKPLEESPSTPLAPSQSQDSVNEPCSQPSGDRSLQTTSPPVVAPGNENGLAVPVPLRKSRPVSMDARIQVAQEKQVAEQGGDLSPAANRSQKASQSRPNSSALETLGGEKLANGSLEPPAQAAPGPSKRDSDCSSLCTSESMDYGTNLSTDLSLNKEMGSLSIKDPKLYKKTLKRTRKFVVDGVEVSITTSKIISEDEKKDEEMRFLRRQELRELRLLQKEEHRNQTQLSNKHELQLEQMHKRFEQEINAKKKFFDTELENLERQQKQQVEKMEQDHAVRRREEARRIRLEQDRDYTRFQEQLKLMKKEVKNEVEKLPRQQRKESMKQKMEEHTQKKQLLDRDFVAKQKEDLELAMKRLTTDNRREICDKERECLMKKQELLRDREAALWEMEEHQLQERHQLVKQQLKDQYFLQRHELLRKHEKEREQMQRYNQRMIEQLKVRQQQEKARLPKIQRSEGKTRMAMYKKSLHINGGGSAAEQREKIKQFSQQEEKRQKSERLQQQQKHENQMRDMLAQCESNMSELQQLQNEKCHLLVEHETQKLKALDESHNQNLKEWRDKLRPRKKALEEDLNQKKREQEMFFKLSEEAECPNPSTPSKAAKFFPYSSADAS
Serine/threonine-protein kinase 24 (Homo sapiens), sequence (Q9Y6E0 whole entry, looked up): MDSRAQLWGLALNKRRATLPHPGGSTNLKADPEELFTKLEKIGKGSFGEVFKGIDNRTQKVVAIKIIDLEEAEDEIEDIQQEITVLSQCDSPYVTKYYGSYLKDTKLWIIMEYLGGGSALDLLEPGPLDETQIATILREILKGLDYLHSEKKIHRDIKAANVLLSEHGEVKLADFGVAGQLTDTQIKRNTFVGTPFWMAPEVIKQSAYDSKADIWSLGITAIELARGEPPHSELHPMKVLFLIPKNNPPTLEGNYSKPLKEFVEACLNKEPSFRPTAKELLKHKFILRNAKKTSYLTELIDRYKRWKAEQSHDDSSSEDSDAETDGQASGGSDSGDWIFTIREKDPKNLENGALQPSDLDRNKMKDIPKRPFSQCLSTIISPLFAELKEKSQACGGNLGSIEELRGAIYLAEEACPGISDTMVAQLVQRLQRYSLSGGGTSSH
Fibroblast growth factor receptor 1 (Homo sapiens), sequence (P11362 22-822 limits assumed): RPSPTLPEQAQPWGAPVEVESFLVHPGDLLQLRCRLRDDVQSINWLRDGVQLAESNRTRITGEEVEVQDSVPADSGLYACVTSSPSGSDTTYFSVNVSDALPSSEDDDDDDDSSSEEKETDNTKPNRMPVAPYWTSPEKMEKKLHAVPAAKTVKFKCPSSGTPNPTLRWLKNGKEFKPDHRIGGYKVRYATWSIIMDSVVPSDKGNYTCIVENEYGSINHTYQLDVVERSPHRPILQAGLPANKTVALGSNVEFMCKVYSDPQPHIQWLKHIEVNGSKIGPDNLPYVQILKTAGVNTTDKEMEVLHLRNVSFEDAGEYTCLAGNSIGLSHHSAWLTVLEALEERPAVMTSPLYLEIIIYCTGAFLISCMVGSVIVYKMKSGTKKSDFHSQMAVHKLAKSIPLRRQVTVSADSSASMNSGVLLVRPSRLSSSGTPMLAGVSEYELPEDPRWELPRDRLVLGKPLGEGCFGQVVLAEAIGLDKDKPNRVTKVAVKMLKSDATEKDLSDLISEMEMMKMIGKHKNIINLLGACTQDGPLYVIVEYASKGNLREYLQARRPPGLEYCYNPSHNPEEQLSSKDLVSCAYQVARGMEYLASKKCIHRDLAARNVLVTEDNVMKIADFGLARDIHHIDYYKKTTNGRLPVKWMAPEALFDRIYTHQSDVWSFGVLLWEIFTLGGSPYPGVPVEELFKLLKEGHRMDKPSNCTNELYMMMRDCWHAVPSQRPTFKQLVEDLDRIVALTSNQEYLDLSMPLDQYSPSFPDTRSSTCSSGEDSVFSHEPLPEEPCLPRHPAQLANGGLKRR
Cyclin-dependent kinase 16 (Homo sapiens), sequence (Q00536 whole entry): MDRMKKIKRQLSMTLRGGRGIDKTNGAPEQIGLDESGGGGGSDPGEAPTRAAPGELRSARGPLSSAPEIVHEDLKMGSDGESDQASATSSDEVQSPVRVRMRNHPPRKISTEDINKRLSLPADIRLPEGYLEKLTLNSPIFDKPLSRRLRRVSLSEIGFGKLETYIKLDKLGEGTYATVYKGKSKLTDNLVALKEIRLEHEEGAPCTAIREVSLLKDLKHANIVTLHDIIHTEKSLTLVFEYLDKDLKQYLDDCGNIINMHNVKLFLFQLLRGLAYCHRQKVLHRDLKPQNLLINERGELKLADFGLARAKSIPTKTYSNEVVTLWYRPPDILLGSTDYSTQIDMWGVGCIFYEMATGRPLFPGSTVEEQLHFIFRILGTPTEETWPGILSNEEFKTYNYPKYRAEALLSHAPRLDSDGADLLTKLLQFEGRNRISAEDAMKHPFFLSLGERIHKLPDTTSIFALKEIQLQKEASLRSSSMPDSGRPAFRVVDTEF
Calcium/calmodulin-dependent protein kinase type 1G (Homo sapiens), sequence (Q96NX5 whole entry): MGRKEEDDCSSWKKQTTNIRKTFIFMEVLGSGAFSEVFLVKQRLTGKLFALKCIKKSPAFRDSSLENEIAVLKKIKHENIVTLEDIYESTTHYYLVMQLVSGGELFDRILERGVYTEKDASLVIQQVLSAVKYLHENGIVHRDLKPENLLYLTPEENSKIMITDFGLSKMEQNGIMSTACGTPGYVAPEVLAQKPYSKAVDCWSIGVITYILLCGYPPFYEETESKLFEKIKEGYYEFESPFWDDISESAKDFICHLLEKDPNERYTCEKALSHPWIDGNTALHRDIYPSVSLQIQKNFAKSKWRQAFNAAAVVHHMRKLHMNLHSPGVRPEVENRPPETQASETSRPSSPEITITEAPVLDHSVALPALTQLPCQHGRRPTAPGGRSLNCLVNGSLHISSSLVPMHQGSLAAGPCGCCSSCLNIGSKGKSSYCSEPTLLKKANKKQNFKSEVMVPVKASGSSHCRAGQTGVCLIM
5-hydroxytryptamine receptor 1D (Homo sapiens), sequence (P28221 whole entry): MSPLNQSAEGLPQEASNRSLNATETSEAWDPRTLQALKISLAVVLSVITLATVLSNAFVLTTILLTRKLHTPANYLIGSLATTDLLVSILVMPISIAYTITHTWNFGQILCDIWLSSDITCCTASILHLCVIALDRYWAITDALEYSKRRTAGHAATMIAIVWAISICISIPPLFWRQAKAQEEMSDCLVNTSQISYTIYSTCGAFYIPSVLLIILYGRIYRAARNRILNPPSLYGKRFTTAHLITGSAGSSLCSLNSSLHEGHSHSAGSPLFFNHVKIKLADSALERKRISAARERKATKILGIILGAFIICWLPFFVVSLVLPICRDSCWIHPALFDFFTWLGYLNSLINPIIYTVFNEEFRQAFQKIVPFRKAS
Muscarinic acetylcholine receptor M2 (Homo sapiens), sequence (P08172 whole entry): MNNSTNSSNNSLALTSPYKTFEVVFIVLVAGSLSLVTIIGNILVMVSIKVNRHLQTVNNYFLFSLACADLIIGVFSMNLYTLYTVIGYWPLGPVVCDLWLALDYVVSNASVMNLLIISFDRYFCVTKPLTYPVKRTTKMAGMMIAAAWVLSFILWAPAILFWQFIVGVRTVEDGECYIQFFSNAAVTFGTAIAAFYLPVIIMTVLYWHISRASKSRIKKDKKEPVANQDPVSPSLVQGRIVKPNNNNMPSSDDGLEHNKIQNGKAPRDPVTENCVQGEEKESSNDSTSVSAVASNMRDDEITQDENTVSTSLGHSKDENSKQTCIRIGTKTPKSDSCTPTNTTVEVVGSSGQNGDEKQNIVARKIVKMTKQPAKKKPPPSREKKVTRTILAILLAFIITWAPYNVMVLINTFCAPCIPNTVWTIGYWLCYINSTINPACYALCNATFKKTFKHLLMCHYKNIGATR
Alpha-2B adrenergic receptor (Homo sapiens), sequence (P18089 whole entry): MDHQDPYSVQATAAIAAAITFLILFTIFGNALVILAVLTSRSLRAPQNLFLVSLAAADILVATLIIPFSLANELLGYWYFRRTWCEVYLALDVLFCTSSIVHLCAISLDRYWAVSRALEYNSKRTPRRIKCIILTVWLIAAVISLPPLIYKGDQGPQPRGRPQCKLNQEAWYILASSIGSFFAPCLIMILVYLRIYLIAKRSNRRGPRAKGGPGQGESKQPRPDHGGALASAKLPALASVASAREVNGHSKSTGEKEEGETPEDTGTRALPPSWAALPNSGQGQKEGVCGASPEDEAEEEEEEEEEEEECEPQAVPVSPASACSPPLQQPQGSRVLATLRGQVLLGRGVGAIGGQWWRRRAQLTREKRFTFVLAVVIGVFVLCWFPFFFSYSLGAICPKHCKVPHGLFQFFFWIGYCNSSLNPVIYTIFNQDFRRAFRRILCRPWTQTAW

On to `COC[C@H](NC(=O)c1ccn(S(C)(=O)=O)c1)C(=O)Nc1nc(-c2cccc(-c3ccn(C)n3)c2)cs1`, for which the delta Tm Staurosporine positive control was 8.8 in test [1]; 22.7 in test [2]; 6.74 in test [3]; -2.91 in test [4]; 7.03 in test [6]; 13.3 in [8]. Further, the delta Tm Staurosporine positive control in [11] was determined as 22.2; in test [12], 5.65. For the same compound, the ΔTm in [1] is -1.35; in test [2], 0.244; in test [3] it was -5.55; in test [4] it was -0.772; in test [6], -1.23; in test [8], -0.0351. Besides, the ΔTm in test [11] was 0.157; in [12] it was -0.0579. In addition, the inhibition – broadly, how much of the control response was suppressed – is 6.88% in test [5], 6.19% in [7], 16.7% in test [9] and 27.5% in [10].
On to `C[C@H](NC(=O)c1cn(C2(C#N)CC2)cn1)C(=O)Nc1nc(-c2cccc(-c3ccn(C)n3)c2)cs1`, for which the delta Tm Staurosporine positive control was 8.8 in [1]; 22.7 in test [2]; 6.74 in test [3]; -2.91 in [4]; 7.03 in [6]; 13.3 in test [8]. In addition, the delta Tm Staurosporine positive control was 22.2 in [11] and 5.65 in test [12]. Moreover, the ΔTm is -0.371 in test [1]; 0.554 in [2]; -1.99 in test [3]; -0.586 in test [4]; -1.44 in [6]; 0.371 in test [8]. For the same compound, the ΔTm in [11] was 0.17; in test [12], -0.166. Further, the inhibition in [5] is 14.6%; in [7] it was 16.3%; in test [9] it was 36%; in test [10] it was 17.3%.
